What was measured:
[1] = target: human CYP4F2 (Homo sapiens (Human), UniProt P78329); test: Inhibition test against 20-HETE producing enzyme CYP4F2 (luciferine derivative, luminescence); type: biochemical; conditions: human CYP4F2, luciferine derivative, luminescence
In short: (§1)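 E. coli membranes (100 μg/mL protein) expressing human enzyme, room temperature 60 min, luciferin-derivative luminescence; IC50 from % inhibition. CYP4F2: 50 mM KPO4 pH 7.4, 2.5 μM substrate, 1 mM NADPH. CYP4A11: 100 mM Tris-HCl pH 7.5, 60 μM substrate, NADP+/glucose 6-phosphate/G6PDH regenerating system, 3.3 mM MgCl2.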

[2] = target: human CYP4A11 (Homo sapiens (Human), UniProt Q02928); test: Inhibition test against 20-HETE producing enzyme CYP4A11 (luciferine derivative, luminescence); type: biochemical; conditions: human CYP4A11, luciferine derivative, luminescence
Sequence of human CYP4A11 (Q02928 5-519): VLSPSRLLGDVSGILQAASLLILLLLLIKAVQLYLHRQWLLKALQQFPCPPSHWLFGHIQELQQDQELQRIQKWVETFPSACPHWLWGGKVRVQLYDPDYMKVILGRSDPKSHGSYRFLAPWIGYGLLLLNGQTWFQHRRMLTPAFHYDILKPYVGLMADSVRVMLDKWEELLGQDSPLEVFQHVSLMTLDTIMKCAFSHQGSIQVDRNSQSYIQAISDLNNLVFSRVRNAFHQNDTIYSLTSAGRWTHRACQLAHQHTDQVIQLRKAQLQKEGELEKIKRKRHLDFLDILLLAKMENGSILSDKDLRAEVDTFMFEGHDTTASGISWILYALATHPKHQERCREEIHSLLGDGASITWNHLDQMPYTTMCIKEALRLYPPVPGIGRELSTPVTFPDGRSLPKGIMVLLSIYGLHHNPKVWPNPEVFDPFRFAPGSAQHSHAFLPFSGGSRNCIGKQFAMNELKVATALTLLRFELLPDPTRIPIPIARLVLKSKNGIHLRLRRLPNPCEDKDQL
In short: as §1

Sequence of human CYP4F2 (P78329 5-520): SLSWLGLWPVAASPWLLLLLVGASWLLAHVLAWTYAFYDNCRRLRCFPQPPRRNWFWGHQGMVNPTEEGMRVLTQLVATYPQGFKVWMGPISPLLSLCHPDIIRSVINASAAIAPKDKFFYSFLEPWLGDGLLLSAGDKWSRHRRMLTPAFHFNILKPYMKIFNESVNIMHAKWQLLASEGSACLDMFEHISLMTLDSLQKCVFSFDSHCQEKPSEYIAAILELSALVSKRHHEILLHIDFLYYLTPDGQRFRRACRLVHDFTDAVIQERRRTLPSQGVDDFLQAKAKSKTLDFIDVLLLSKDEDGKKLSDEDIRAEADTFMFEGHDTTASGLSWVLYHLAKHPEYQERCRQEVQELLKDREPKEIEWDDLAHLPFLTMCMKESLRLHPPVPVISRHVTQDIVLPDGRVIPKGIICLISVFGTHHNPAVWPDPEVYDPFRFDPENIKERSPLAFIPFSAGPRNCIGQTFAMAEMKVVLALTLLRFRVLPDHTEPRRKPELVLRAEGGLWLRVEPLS

IC50 [1]	IC50 [2]	Compound
200 nM	210 nM	O=C(O)C1CC1c1ccc(CCOc2ccc(-c3ccn[nH]3)nc2)cc1 (stereo not drawn) [Example 70-9]
340 nM	450 nM	O=C(O)[C@H]1C[C@@H]1c1ccc(CCOc2ccc(-c3ccn[nH]3)nc2)cc1 [Example 70-10-2]
330 nM	43 nM	O=C(O)C1CC1c1ccc(COc2ccc(-c3ccn[nH]3)nc2)cc1F (stereo not drawn) [Example 70-11, 2-[2-Fluoro-4-[[6-(1H-pyrazol-5-yl)pyridin-3-yl]oxymethyl]phenyl]cyclopropane-1-carboxylic Acid]
300 nM	170 nM	CC[C@@H](OCCCCCCCOc1ccc(-c2ccn[nH]2)nc1)C(=O)O [Example 71-2-1]
90 nM	87 nM	CC[C@H](OCCCCCCCOc1ccc(-c2ccn[nH]2)nc1)C(=O)O [Example 71-2-2]
320 nM	230 nM	O=C(O)COCCCCCCCOc1ccc(-c2ccn[nH]2)nc1 [Example 71-3]
200 nM	270 nM	CC(OCCCCCCCOc1ccc(-c2ccn[nH]2)nc1)C(=O)O (stereo not drawn) [Example 71-4]
39 nM	96 nM	O=C(O)C1(OCCCCCCCOc2ccc(-c3ccn[nH]3)nc2)CC1 [Example 71-5]
550 nM	82 nM	O=C(O)C1CCc2cc(CCOc3ccc(-c4ccn[nH]4)nc3)ccc2O1 (stereo not drawn) [Example 71-7, 6-[2-[6-(1H-Pyrazol-5-yl)pyridin-3-yl]oxyethyl]-3,4-dihydro-2H-chromene-2-carboxylic Acid]
430 nM	1000 nM	O=C(O)[C@@H]1CCc2cc(CCOc3ccc(-c4ccn[nH]4)nc3)ccc2O1 [Example 71-8-1]
560 nM	48 nM	O=C(O)[C@H]1CCc2cc(CCOc3ccc(-c4ccn[nH]4)nc3)ccc2O1 [Example 71-8-2]
870 nM	310 nM	O=C(O)C1COc2cc(CCOc3ccc(-c4ccn[nH]4)nc3)ccc2C1 (stereo not drawn) [Example 71-9]
260 nM	140 nM	O=C(O)C1COc2ccc(CCOc3ccc(-c4ccn[nH]4)nc3)cc2C1 (stereo not drawn) [Example 71-10]
29000 nM	22 nM	O=C(O)C1CCc2c(COc3ccc(-c4ccn[nH]4)nc3)cccc2O1 (stereo not drawn) [Example 71-11]
1300 nM	18 nM	O=C(O)C1COc2c(CCOc3ccc(-c4ccn[nH]4)nc3)cccc2C1 (stereo not drawn) [Example 71-12]
770 nM	51 nM	O=C(O)c1ccc(F)c(CCCOc2ccc(-c3ccn[nH]3)nc2)c1 [Example 71-13]
1300 nM	150 nM	O=C(O)c1cccc(CCCCCOc2ccc(-c3ccn[nH]3)nc2)n1 [Example 71-14]
1200 nM	84 nM	O=C(O)C1CC1c1ccc(COc2ccc(-c3ccn[nH]3)nc2)cc1 (stereo not drawn) [Example 71-15]
91 nM	190 nM	O=C(O)C1CC1c1ccc(CCOc2ccc(-c3ccn[nH]3)nc2)c(F)c1 (stereo not drawn) [Example 71-16]
540 nM	53 nM	O=C(O)C1CC(c2cccc(CCOc3ccc(-c4ccn[nH]4)nc3)c2)C1 (stereo not drawn) [Example 71-19]
190 nM	500 nM	O=C(O)C1CC(c2ccc(CCOc3ccc(-c4ccn[nH]4)nc3)cc2)C1 (stereo not drawn) [Example 71-20]

IC50 [1]	IC50 [2]	Compound
190 nM	330 nM	O=C(O)C1CCc2ccc(CCOc3ccc(-c4ccn[nH]4)nc3)cc2O1 (stereo not drawn) [Example 71-21, 7-[2-[6-(1H-Pyrazol-5-yl)pyridin-3-yl]oxyethyl]-3,4-dihydro-2H-chromene-2-carboxylic Acid]
310 nM	250 nM	O=C(O)[C@H]1CCc2ccc(CCOc3ccc(-c4ccn[nH]4)nc3)cc2O1 [Example 71-22-1]
160 nM	1000 nM	O=C(O)[C@@H]1CCc2ccc(CCOc3ccc(-c4ccn[nH]4)nc3)cc2O1 [Example 71-22-2]
550 nM	50 nM	O=C(O)C1COc2cc(COc3ccc(-c4ccn[nH]4)nc3)ccc2C1 (stereo not drawn) [Example 71-23]
2100 nM	72 nM	O=C(O)C1CC1c1ccc(COc2ccc(-c3ccn[nH]3)nc2)c(F)c1 (stereo not drawn) [Example 71-24]
4800 nM	300 nM	CC(C)(Cc1ccc(COc2ccc(-c3ccn[nH]3)nc2)cc1)C(=O)O [Example 71-25]
9700 nM	39 nM	O=C(O)C1(Cc2cccc(COc3ccc(-c4ccn[nH]4)nc3)c2F)COC1 [Example 71-26]
15000 nM	94 nM	O=C(O)C1(Cc2cccc(CCOc3ccc(-c4ccn[nH]4)nc3)c2F)COC1 [Example 71-27]
6200 nM	1600 nM	CC(C)(Cc1ccc(CCOc2ccc(-c3ccn[nH]3)nc2)cn1)C(=O)O [Example 71-28]
260 nM	110 nM	O=C(O)c1ccc(CCCCCOc2ccc(-c3ccn[nH]3)nc2)cn1 [Example 71-29]
11000 nM	1900 nM	CC(C)(Oc1ccc(CCOc2ccc(-c3ccn[nH]3)nc2)cc1)C(=O)O [Example 71-30]
15000 nM	300 nM	CC(C)(Oc1cccc(CCOc2ccc(-c3ccn[nH]3)nc2)c1)C(=O)O [Example 71-31]
23000 nM	6200 nM	CC(C)(Oc1ccc(CCOc2ccc(-c3ccn[nH]3)nc2)cn1)C(=O)O [Example 71-32]
600 nM	1600 nM	CC(C)(COc1ccc(CCOc2ccc(-c3ccn[nH]3)nc2)cn1)C(=O)O [Example 71-33]
36000 nM	1100 nM	CC(C)(Oc1cc(CCOc2ccc(-c3ccn[nH]3)nc2)ccn1)C(=O)O [Example 71-34]
1900 nM	1400 nM	CC(C)(COc1cc(CCOc2ccc(-c3ccn[nH]3)nc2)ccn1)C(=O)O [Example 71-35]
> 50000 nM	260 nM	CC(C)(Oc1cccc(CCOc2ccc(-c3ccn[nH]3)nc2)n1)C(=O)O [Example 71-36]
3500 nM	160 nM	CC(C)(COc1cccc(CCOc2ccc(-c3ccn[nH]3)nc2)n1)C(=O)O [Example 71-37]
1900 nM	1400 nM	CC(C)(Oc1ccc(CCCOc2ccc(-c3ccn[nH]3)nc2)cn1)C(=O)O [Example 71-38]
51 nM	780 nM	CC(C)(COc1ccc(CCCOc2ccc(-c3ccn[nH]3)nc2)cn1)C(=O)O [Example 71-39]
8700 nM	450 nM	CC(C)(Oc1cccc(CCCOc2ccc(-c3ccn[nH]3)nc2)n1)C(=O)O [Example 71-40]

IC50 [1]	IC50 [2]	Compound
660 nM	160 nM	CC(C)(COc1cccc(CCCOc2ccc(-c3ccn[nH]3)nc2)n1)C(=O)O [Example 71-41]
2100 nM	630 nM	CC(C)(Oc1cc(CCCOc2ccc(-c3ccn[nH]3)nc2)ccn1)C(=O)O [Example 71-42]
250 nM	870 nM	CC(C)(COc1cc(CCCOc2ccc(-c3ccn[nH]3)nc2)ccn1)C(=O)O [Example 71-43]
37 nM	1000 nM	CC(=O)N1CC(CCCCCCCCOc2ccc(-c3ccn[nH]3)nc2)(C(=O)O)C1 [Example 71-44]
54 nM	450 nM	CC(C)(OCCCCCCCCOc1ccc(-c2ccn[nH]2)nc1)C(=O)O [Example 72-1]
14 nM	150 nM	O=C(O)C1(CCCCCCCCOc2ccc(-c3ccn[nH]3)nc2)CCOC1 (stereo not drawn) [Example 72-4]
43 nM	260 nM	O=C(O)C1(CCCCCCCCOc2ccc(-c3ccn[nH]3)nc2)CCCO1 (stereo not drawn) [Example 72-5]
9.4 nM	270 nM	O=C(O)C1(CCCCCCCCOc2ccc(-c3ccn[nH]3)nc2)CCS(=O)(=O)CC1 [Example 72-6]
15000 nM	14 nM	O=C(O)C1(Cc2cccc(COc3ccc(-c4ccn[nH]4)nc3)c2F)CC1 [Example 72-7]
1700 nM	15 nM	O=C(O)C1(Cc2cccc(CCOc3ccc(-c4ccn[nH]4)nc3)c2F)CC1 [Example 72-8]
18 nM	230 nM	CC(=O)N1CCC(CCCCCCCCOc2ccc(-c3ccn[nH]3)nc2)(C(=O)O)C1 (stereo not drawn) [Example 72-9]
1100 nM	130 nM	O=C(O)C1(Cc2ccc(CCOc3ccc(-c4ccn[nH]4)nc3)cc2)CC1 [Example 74-1]
60 nM	88 nM	O=C(O)C1CC1c1cccc(CCOc2ccc(-c3ccn[nH]3)nc2)c1F (stereo not drawn) [Example 74-3]
16000 nM	35 nM	O=C(O)C1CC1c1ccc(F)c(CCOc2ccc(-c3ccn[nH]3)nc2)c1 (stereo not drawn) [Example 74-6]
19000 nM	47 nM	O=C(O)C1CC1c1cc(F)cc(CCOc2ccc(-c3ccn[nH]3)nc2)c1 (stereo not drawn) [Example 74-9]
13000 nM	510 nM	O=C(O)C1(Cc2ccc(CCOc3ccc(-c4ccn[nH]4)nc3)cc2)COC1 [Example 74-12, 3-[[4-[2-[6-(1H-Pyrazol-5-yl)pyridin-3-yl]oxyethyl]phenyl]methyl]oxetane-3-carboxylic Acid]
9300 nM	21 nM	CC(C)(NS(=O)(=O)c1cccc(COc2ccc(-c3ccn[nH]3)nc2)c1)C(=O)O [Example 75-1]
130 nM	38 nM	CN(CC(C)(C)C(=O)O)S(=O)(=O)c1cccc(COc2ccc(-c3ccn[nH]3)nc2)c1 [Example 75-2]
490 nM	36 nM	CC(C)(CNS(=O)(=O)c1cccc(COc2ccc(-c3ccn[nH]3)nc2)c1)C(=O)O [Example 75-3]
29000 nM	43 nM	CN(C(C)(C)C(=O)O)S(=O)(=O)c1cccc(COc2ccc(-c3ccn[nH]3)nc2)c1 [Example 75-4]

Compound	IC50 [1]	IC50 [2]
CCC(OCCCCCCCOc1ccc(-c2ccn[nH]2)nc1)C(=O)O (stereo not drawn) [Example 71-1, 2-[7-[6-(1H-Pyrazol-5-yl)pyridin-3-yl]oxyheptoxy]butanoic Acid]	140 nM	110 nM

Reference: patent publication US11365192B2, “Pyridine compound substituted with azole” (TAISHO PHARMACEUTICAL CO., LTD., priority 2017, dated 2022)
